Article PMC11345829, “Discovery of Potent Isoquinolinequinone N-Oxides to Overcome Cancer Multidrug Resistance” (Journal of Medicinal Chemistry, 2024)

What was measured:
NCI-H460/R = experiment: SRB cell growth inhibition assay; assay type: cell-based, human; details: for selectivity ratio NSCLC: GI50 sensitive NCI-H460 / GI50 MDR NCI-H460/R; for GI50: Homo sapiens, NCI-H460, 48 h, NSCLC MDR, mean ± SEM; for GI50 / GI50 concentration range against MDR NCI-H460/R: SRB assay; for GI50 concentration range against MDR NCI-H460/R: in words
Experimental: Two distinct pairs of counterpart drug-sensitive and MDR human tumor cell lines were used, namely the non-small lung cancer (NSCLC) NCI-H460 (same cell line as in the NCI screen) and its MDR counterpart cell line NCI-[…] and the colorectal cancer DLD1 and its MDR counterpart cell line DLD1-TxR (Table 3). The screening was performed using the SRB assay, and the GI50 for each compound was determined by interpolation on the attained concentration-response curves and compared with NCI60 screening data (SI, Figures S62-S63; Table S21). Two pairs of drug-sensitive and multidrug-resistant (MDR) cell lines from human nonsmall cell lung cancer (NSCLC), NCI-H460 and NCI-[…], and colorectal cancer, DLD1 and DLD1-TxR, kindly provided by Dr M. […] The A549 cell line was maintained in Dulbecco's Modified Eagle Medium (DMEM) supplemented with 4.5 g/L Glucose with UltraGlutamine with sodium pyruvate (Lonza, Basel Stücki, Switzerland), enriched with 10% fetal bovine serum (FBS; Biowest, Nuaillé, France). […] For the sulforhodamine B (SRB) and 3D cell culture assays, the media were supplemented with 5% FBS. The remaining experiments were performed with medium supplemented with 10% FBS. […] The SRB assay was performed as previously described.[78],[79] Briefly, after fixing cells with 10% (w/v) ice-cold trichloroacetic acid (Merck Life Science), the proteins were stained with 0.4% of SRB (Merck Life Science) in acetic acid (Merck Life Science). Following washing steps in acetic acid, the bound dye was solubilized with 10 mM Tris base solution (Merck Life Science). Absorbance was measured at 510 nm in a multiplate reader (Synergy Mx, Biotek Instruments Inc., Winooski, Vermont, USA) using the Gen5 software (Biotek Instruments Inc.).

DLD1-TxR = experiment: SRB cell growth inhibition assay; assay type: cell-based, human; details: for selectivity ratio colorectal cancer: GI50 sensitive DLD1 / GI50 MDR DLD1-TxR; for GI50: Homo sapiens, 48 h, colorectal cancer MDR, mean ± SEM; for GI50 / GI50 concentration range against MDR DLD1-TxR: SRB assay; for GI50 concentration range against MDR DLD1-TxR: in words
Experimental: Two distinct pairs of counterpart drug-sensitive and MDR human tumor cell lines were used, namely the non-small lung cancer (NSCLC) NCI-H460 (same cell line as in the NCI screen) and its MDR counterpart cell line NCI-H460/R and the colorectal cancer DLD1 and its MDR counterpart cell line DLD1-TxR (Table 3). The screening was performed using the SRB assay, and the GI50 for each compound was determined by interpolation on the attained concentration−response curves and compared with NCI60 screening data (SI, Figures S62−S63; Table S21).
Two pairs of drug-sensitive and multidrug-resistant (MDR) cell lines from human nonsmall cell lung cancer (NSCLC), NCI-H460 and NCI-H460/R, and colorectal cancer, DLD1 and DLD1-TxR, kindly provided by Dr M. Pešić (Belgrade, Serbia), were used to evaluate the growth inhibition potential of the compounds 1, 2, 3, 4, 5, 20, 23, 24, an 25.[76],[77] Additionally, growth inhibition assays were performed with compound 25 on two other NSCLC cell lines, A549 and NCI-H322, obtained from the American Type Culture Collection (ATCC) and the European Collection of Authenticated Cell Cultures, respectively. The A549 cell line was maintained in Dulbecco’s Modified Eagle Medium (DMEM) supplemented with 4.5 g/L Glucose with UltraGlutamine with sodium pyruvate (Lonza, Basel Stücki, Switzerland), enriched with 10% fetal bovine serum (FBS; Biowest, Nuaillé, France). The lung fibroblast MRC-5 cell line and the remaining NSCLC and colorectal cancer cell lines were cultured in Roswell Park Memorial Institute (RPMI) 1640 (with stable glutamine and 25 mM HEPES) medium (Biowest), supplemented with 10% fetal bovine serum. […] For the sulforhodamine B (SRB) and 3D cell culture assays, the media were supplemented with 5% FBS. The remaining experiments were performed with medium supplemented with 10% FBS.
Cells were seeded at a previously determined optimal cell concentration (5.0 × 10^4 cells/mL for NSCLC cells and the nontumorigenic MRC-5 cell line and 1.0 × 10^5 cells/mL for colorectal cancer cells) and incubated at 37 °C for 24 h. […] The SRB assay was performed as previously described.[78],[79] Briefly, after fixing cells with 10% (w/v) ice-cold trichloroacetic acid (Merck Life Science), the proteins were stained with 0.4% of SRB (Merck Life Science) in acetic acid (Merck Life Science). Following washing steps in acetic acid, the bound dye was solubilized with 10 mM Tris base solution (Merck Life Science). Absorbance was measured at 510 nm in a multiplate reader (Synergy Mx, Biotek Instruments Inc., Winooski, Vermont, USA) using the Gen5 software (Biotek Instruments Inc.).

OVCAR-8 = experiment: NCI60 five-dose GI50; assay type: cell-based; details: Homo sapiens, ovarian
Text: The concentration−response curve generated enables the determination of three criteria, GI50 (drug concentration at which 50% of cell growth is inhibited), total growth inhibition (TGI) and LC50 (drug concentration at which 50% of tumor cells are killed) which can be used to compare effectiveness against any compound tested in the screen since its inception.
S2.1 NCI Screening Assay Experimental details
NCI Screening Assay Experimental: Cancer cell growth assays (NCI60 screening) 5,6 One-dose study: Tested compounds were initially solubilised in DMSO, diluted into RPMI 1640 and 5% fetal bovine serum/L-glutamine, and added to 96-well plates containing cell lines previously cultured for 24 h. After 48 h incubation, the media were removed, and the cells were fixed and stained with sulforhodamine B to determine overall percent growth/ total protein content. Unbound dye was removed with five washes of 1% acetic acid, and the plates were allowed to air dry. The dye was then resolubilised in Tris buffer, and the colorimetric absorbance was measured (515 nm). […]
Five-dose study: Serial 5 × 10-fold dilution from an initial DMSO stock solution was performed, prior to incubation at each individual concentration (10 nM, 100 nM, 1 μM, 10 μM and 100 μM). Using seven absorbance measurements (time zero (Tz), control growth (C), and test growth in the presence of drug at the five concentration levels (Ti)), the percentage growth was calculated at each of the drug concentrations levels. Percentage growth inhibition was calculated as: [(Ti − Tz)/(C − Tz)] × 100 for concentrations for which Ti ≥ Tz, [(Ti − Tz)/Tz] × 100 for concentrations for which Ti < Tz. Three dose response parameters were calculated for each experimental agent. […]
was calculated from [(Ti − Tz)/(C − Tz)] × 100 = 50, which is the drug concentration resulting in a 50% reduction in the net protein increase (as measured by sulforhodamine B staining) in control cells during the drug incubation. The drug concentration resulting in total growth inhibition (TGI) was calculated from Ti = Tz. The LC50 (concentration of drug resulting in a 50% reduction in the measured protein at the end of the drug treatment as compared to that at the beginning) indicating a net loss of cells following treatment was calculated from [(Ti − Tz)/Tz] × 100 = −50. Values were calculated for each of these three parameters if the level of activity was reached; however, if the effect was not reached or was exceeded, the value for that parameter was expressed as greater or less than the maximum or minimum concentration tested.

SMILES	selectivity ratio NSCLC (NCI-H460/R)	GI50 (NCI-H460/R)	GI50 concentration range against MDR NCI-H460/R (NCI-H460/R)	selectivity ratio colorectal cancer (DLD1-TxR)	GI50 (DLD1-TxR)	GI50 concentration range against MDR DLD1-TxR (DLD1-TxR)	GI50 (OVCAR-8)
COC(=O)c1c2c(c(C)[n+]([O-])c1C)C(=O)C=C(NCc1ccccc1)C2=O [Compound 2]	1.7	830 ± 20 nM	nanomolar range	2.7	880 ± 90 nM	nanomolar range	
COC(=O)c1c2c(c(C)[n+]([O-])c1C)C(=O)C(NCc1ccc(F)cc1)=CC2=O [Compound 4]	1.2	2250 ± 270 nM		1.9	3130 ± 100 nM		1590 nM
COC(=O)c1c2c(c(C)[n+]([O-])c1C)C(=O)C=C(NCc1ccc(F)cc1)C2=O [Compound 5]	1.6	360 ± 110 nM	nanomolar range	1.8	670 ± 50 nM	nanomolar range	406 nM
COC(=O)c1c2c(c(C)[n+]([O-])c1C)C(=O)C(NCc1ccc(O)cc1)=CC2=O [Compound 20]	1.2	4840 ± 740 nM		1.6	5930 ± 550 nM		1080 nM
COC(=O)c1c2c(c[n+]([O-])c1C)C(=O)C=CC2=O [Compound 23]	2.1	17900 ± 3360 nM		2	14900 ± 680 nM		2930 nM
COC(=O)c1c2c(c[n+]([O-])c1C)C(=O)C(NCc1ccccc1)=CC2=O [Compound 24]	2	380 ± 20 nM	nanomolar range	1.9	720 ± 30 nM	nanomolar range	320 nM
COC(=O)c1c2c(c[n+]([O-])c1C)C(=O)C=C(NCc1ccccc1)C2=O [Compound 25]	1	340 ± 30 nM	nanomolar range	1.5	420 ± 30 nM	nanomolar range	240 nM
COc1cccc2c1C(=O)c1c(O)c3c(c(O)c1C2=O)C[C@@](O)(C(=O)CO)C[C@@H]3O[C@H]1C[C@H](N)[C@H](O)[C@H](C)O1 [doxorubicin, reference compound]		2460 ± 40 nM					
